In patent US20240246969A1, “HETEROCYCLIC DERIVATIVES AS CAMKK2 INHIBITORS” (Bristol-Myers Squibb Company, priority 2021, published 2024):

How the values were obtained:
CaMKK2 = CaMKK2 (Homo sapiens, UniProt Q96RR4); test: CaMKK2 binding assay (LanthaScreen TR-FRET)
Description: The ability of test compounds to bind and inhibit the activity of CaMKK2 were determined using a binding assay using LanthaScreent (Thermofisher) detection reagents in a 384-well plate format using the following assay buffer: 50 mM HEPES (pH7.5), 10 mM MgCl2, 1 mM EGTA, and 0.01% Brij-35.
A 10-point serial dilution of inhibitor compound in 0.5% DMSO was added to each well of the plate. The final assay volume in well was 15 uL. […] A ratio was calculated from the 2 readouts and fitted to a 4-parameter fit to determine the binding IC50.

[1] = system: phosphorylation of CaMKK2 substrate AMPK at Thr172 in A549 lung carcinoma cells; test: Cell-based phosphorylation assay (Phospho-AMPK Thr172 HTRF); settings: Homo sapiens; A549 cells, compounds 4 hours, 3 uM Calcium Ionophore 30 minutes; read-out: Cellular IC50 Phosphorylation
Description: Cellular CaMKK2 inhibition by compounds was measured by monitoring the phosphorylation of CaMKK2 substrate AMPK at Thr172 in A549 lung carcinoma cells (ATCC) using CISBIO Phospho-AMPK (Thr172) HTRF kit. A549 cells were plated in 96 well plates at 8000 cells/well in DMEM+10% FBS+1× pen/step+1×NEAA and incubated at 37° C. overnight in a CO2 incubator. Cells were then treated with compounds for 4 hours. After cells were stimulated by 3 uM Calcium Ionophore (Sigma) at 37° C. for 30 minutes, cells were washed and then lysed with cell lysis buffer (CisBio) for 30 minutes. […] Plates were incubated overnight and then read using HTRF mode by BMG PHERAstarFS.

[2] = system: A549 lung carcinoma cells; test: Cell proliferation assay (CellTiter 96 Aqueous); assay type: cell-based; settings: Homo sapiens, compounds 48 hours, read-out: Cellular IC50 Proliferation
Description: Proliferation was measured using CellTiter 96 Aqueous Non-Radioactive Cell Proliferation Assay Kit (Promega), which determines the number of viable cells in culture based on quantitation of dehydrogenase enzymes, as an indicator of metabolically active cells. A549 lung carcinoma cells were seeded at 2,000 cells/well in a 96-well tissue culture treated plate in DMEM+10% FBS+1× pen/step+1×NEAA and incubated at 37° C. overnight in a CO2 incubator. Cells were treated with compounds for 48 hours. Then viability was measured using CellTiter 96 Aqueous Non-Radioactive Cell Proliferation Assay Kit (Promega). Detection was performed using Biotek Cytation 5 Cell Imaging Multi Mode plate reader.

CaMKK2, sequence (Q96RR4 whole entry): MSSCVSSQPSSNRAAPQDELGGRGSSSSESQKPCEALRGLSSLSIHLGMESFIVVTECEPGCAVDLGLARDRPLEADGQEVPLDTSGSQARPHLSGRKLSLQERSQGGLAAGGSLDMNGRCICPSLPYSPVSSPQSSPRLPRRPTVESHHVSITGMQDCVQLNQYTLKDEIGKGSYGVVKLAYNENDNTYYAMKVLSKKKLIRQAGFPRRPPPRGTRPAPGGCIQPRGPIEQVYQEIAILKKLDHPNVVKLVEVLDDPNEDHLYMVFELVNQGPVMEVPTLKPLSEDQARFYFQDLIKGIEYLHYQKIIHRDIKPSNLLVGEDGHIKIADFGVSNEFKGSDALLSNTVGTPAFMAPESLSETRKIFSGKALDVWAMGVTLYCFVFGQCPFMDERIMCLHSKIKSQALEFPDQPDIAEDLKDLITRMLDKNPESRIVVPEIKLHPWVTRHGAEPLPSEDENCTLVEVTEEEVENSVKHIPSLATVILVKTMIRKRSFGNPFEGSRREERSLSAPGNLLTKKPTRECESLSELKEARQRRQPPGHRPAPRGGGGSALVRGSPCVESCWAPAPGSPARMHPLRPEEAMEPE

`O=C(O)c1ccc(-n2ccc3ncc(-c4ccccc4)nc32)cc1C1CCCC1` [Example 1, 2-Cyclopentyl-4-(3-phenylpyrrolo[2,3-b]pyrazin-5-yl)benzoic Acid] was tested, and the IC50 (CaMKK2) was under 100 nM, the IC50 [1] was under 100 nM and the IC50 [2] was over 10000 nM.
For `O=C(O)c1ccc(-n2ccc3ncc(-c4cccc(C5CC5)c4)nc32)cc1C1CCCC1` [Example 2, 2-Cyclopentyl-4-[3-(3-cyclopropylphenyl)pyrrolo[2,3-b]pyrazin-5-yl]benzoic Acid], the IC50 (CaMKK2) was under 100 nM, the IC50 [1] was under 100 nM and the IC50 [2] was over 10000 nM.
Work on `O=C(O)c1ccc(-c2ccnc3cc(-c4ccccc4)nn23)cc1C1CCCC1` [Example 2.2, 2-Cyclopentyl-4-(2-phenylpyrazolo[1,5-a]pyrimidin-7-yl)benzoic Acid] yielded an IC50 (CaMKK2) of under 100 nM, an IC50 [1] of 100 to 1000 nM and an IC50 [2] of over 10000 nM.
In the case of `O=C(O)c1ccc(-c2ccnc3cc(-c4ccccc4F)nn23)cc1C1CCCC1` [Example 2.6, 2-Cyclopentyl-4-(2-(2-fluorophenyl)pyrazolo[1,5-a]pyrimidin-7-yl)benzoic Acid], the IC50 (CaMKK2) is reported as under 100 nM, the IC50 [1] is reported as 100 to 1000 nM and the IC50 [2] is reported as over 10000 nM.
`CCOc1cccc(-c2cc3nccc(-c4ccc(C(=O)O)c(C5CCCC5)c4)n3n2)c1` [Example 2.10, 2-Cyclopentyl-4-(2-(3-ethoxyphenyl)pyrazolo[1,5-a]pyrimidin-7-yl)benzoic Acid] gave an IC50 (CaMKK2) of under 100 nM, an IC50 [1] of 100 to 1000 nM and an IC50 [2] of over 10000 nM.
Work on `O=C(O)c1ccc(-c2ccnc3cc(-c4cccc(OCC5CC5)c4)nn23)cc1C1CCCC1` [Example 2.11, 2-Cyclopentyl-4-(2-(3-(cyclopropylmethoxy)phenyl)pyrazolo[1,5-a]pyrimidin-7-yl)benzoic Acid] yielded an IC50 (CaMKK2) of under 100 nM, an IC50 [1] of 100 to 1000 nM and an IC50 [2] of over 10000 nM.
In the case of `O=C(O)c1ccc(-n2ccc3ncc(-c4cccc(Cl)c4)nc32)cc1C1CCCC1` [Example 3, 4-[3-(3-Chlorophenyl)pyrrolo[2,3-b]pyrazin-5-yl]-2-cyclopentyl-benzoic Acid], the IC50 (CaMKK2) is reported as under 100 nM, the IC50 [1] is reported as 100 to 1000 nM and the IC50 [2] is reported as over 10000 nM.
Work on `O=C(O)c1ccc(-c2ccnc3cn(-c4ccc(F)cc4)nc23)cc1C1CCCC1` [Example 3.1, 2-Cyclopentyl-4-[2-(4-fluorophenyl)pyrazolo[4,3-b]pyridin-7-yl]benzoic Acid] yielded an IC50 (CaMKK2) of under 100 nM, an IC50 [1] of 100 to 1000 nM and an IC50 [2] of over 10000 nM.
`O=C(O)c1ccc(-c2ccnc3cn(-c4ccccc4)nc23)cc1C1CCCC1` [Example 3.2, 2-Cyclopentyl-4-(2-phenyl-2H-pyrazolo[4,3-b]pyridin-7-yl)benzoic Acid] was tested, and the IC50 (CaMKK2) was under 100 nM, the IC50 [1] was under 100 nM and the IC50 [2] was over 10000 nM.
Molecule `Cc1cccc(-n2cc3nccc(-c4ccc(C(=O)O)c(C5CCCC5)c4)c3n2)c1` [Example 3.3, 2-Cyclopentyl-4-(2-(m-tolyl)-2H-pyrazolo[4,3-b]pyridin-7-yl)benzoic Acid] has an IC50 (CaMKK2) of under 100 nM, an IC50 [1] of 100 to 1000 nM and an IC50 [2] of over 10000 nM.
`Cc1cc(C)cc(-c2cnc3ccn(-c4ccc(C(=O)O)c(N[C@H]5CCNC5)c4)c3n2)c1` [Example 32, (S)-4-(3-(3,5-dimethylphenyl)-5H-pyrrolo[2,3-b]pyrazin-5-yl)-2-(pyrrolidin-3-ylamino)benzoic Acid] showed an IC50 (CaMKK2) of under 100 nM.
Molecule `Cc1cc(C)cc(-c2cnc3ccn(-c4ccc(C(=O)O)c(N[C@@H]5CCCNC5)c4)c3n2)c1` [Example 33, (R)-4-(3-(3,5-dimethylphenyl)-5H-pyrrolo[2,3-b]pyrazin-5-yl)-2-(piperidin-3-ylamino)benzoic Acid] has an IC50 (CaMKK2) of under 100 nM.
In the case of `Cc1cc(C)cc(-c2cnc3ccn(-c4ccc(C(=O)O)c(NC5CCNCC5)c4)c3n2)c1` [Example 34, 4-(3-(3,5-dimethylphenyl)-5H-pyrrolo[2,3-b]pyrazin-5-yl)-2-(piperidin-4-ylamino)benzoic Acid], the IC50 (CaMKK2) is reported as under 100 nM.
Molecule `Cc1cc(C)cc(-c2cnc3ccn(-c4ccc(C(=O)O)c(O[C@@H]5CCNC5)c4)c3n2)c1` [Example 35, (R)-4-(3-(3,5-dimethylphenyl)-5H-pyrrolo[2,3-b]pyrazin-5-yl)-2-(pyrrolidin-3-yloxy)benzoic Acid] has an IC50 (CaMKK2) of 100 to 1000 nM.
